In US4174390A, “Antibiotic A-7413 and process for preparation thereof” (Eli Lilly and Company, priority 1978, dated 1979):
Values after ≈ are worked out from the molar mass of the structure shown.

Legend:
[1] = system: Staphylococcus aureus strains; assay: standard agar-dilution tests (ICS method), S. aureus strains; assay type: cell-based
Procedure: A special advantage of the A-7413 compounds is their ability to inhibit organisms which are resistant to other antibiotics. In Table V are summarized the results of standard agar-dilution tests (using the ICS method) wherein A-7413 factor A was tested against a variety of Staphylococcus aureus strains. Results are given as the minimal inhibitory concentration (MIC) at which inhibition of the S. aureus strain occurred. The results obtained with the known antibiotic vancomycin in the same test are included for comparison.

Streptococcus species = assay: agar-dilution tests, penicillin-G-resistant Group-D-Streptococcus strains; assay type: cell-based, Streptococcus sp.
Procedure: In Table VI are summarized the results of agar-dilution tests wherein A-7413 factor A was tested against a variety of Streptococcus species. These tests employed trypticase-soy agar plus blood, 10^-2 dilution of an overnight broth culture in 0.3% agar as an inoculum, giving approximately 5,000 bacteria per 7.5-mm of agar surface. Again, the results for vancomycin in the same test are reported for comparison. All strains tested are penicillin-G-resistant, Group-D-Streptococcus strains.

CN[C@H](CC(C)C)C(=O)N[C@H]1C(=O)N[C@@H](CC(N)=O)C(=O)N[C@H]2C(=O)N[C@H]3C(=O)N[C@H](C(=O)N[C@H](C(=O)O)c4cc(O)cc(O)c4-c4cc3ccc4O)[C@H](O)c3ccc(c(Cl)c3)Oc3cc2cc(c3O[C@@H]2O[C@H](CO)[C@@H](O)[C@H](O)[C@H]2O[C@H]2C[C@](C)(N)[C@H](O)[C@H](C)O2)Oc2ccc(cc2Cl)[C@H]1O [Vancomycin, vancomycin]
MIC ([1]; S. aureus strain 3055, penicillin G susceptible): 1 µg/mL (≈ 0.69 µM)
MIC ([1]; S. aureus strain 3074, penicillin G resistant, methicillin susceptible): 1 µg/mL (≈ 0.69 µM)
MIC ([1]; S. aureus strain 3123, penicillin G susceptible): 1 µg/mL (≈ 0.69 µM)
MIC ([1]; S. aureus strain 3125, penicillin G and methicillin resistant): 1 µg/mL (≈ 0.69 µM)
MIC ([1]; S. aureus strain 3130, penicillin G and methicillin resistant): 1 µg/mL (≈ 0.69 µM)
MIC ([1]; S. aureus strain 3131, penicillin G and methicillin resistant): 1 µg/mL (≈ 0.69 µM)
MIC ([1]; S. aureus strain 3132, penicillin G and methicillin resistant): 1 µg/mL (≈ 0.69 µM)
MIC ([1]; S. aureus strain 3133, penicillin G and methicillin resistant): 1 µg/mL (≈ 0.69 µM)
MIC ([1]; S. aureus strain 3134, penicillin G and methicillin resistant): 1 µg/mL (≈ 0.69 µM)
MIC ([1]; S. aureus strain 3135, penicillin G and methicillin resistant): 0.5 µg/mL (≈ 0.345 µM)
MIC ([1]; S. aureus strain 3136, penicillin G and methicillin resistant): 0.5 µg/mL (≈ 0.345 µM)
MIC ([1]; S. aureus strain 3137, penicillin G and methicillin resistant): 1 µg/mL (≈ 0.69 µM)
MIC ([1]; S. aureus strain 3138, penicillin G and methicillin resistant): 1 µg/mL (≈ 0.69 µM)
MIC ([1]; S. aureus strain 3139, penicillin G and methicillin resistant): 1 µg/mL (≈ 0.69 µM)
MIC ([1]; S. aureus strain 3140, penicillin G and methicillin resistant): 0.5 µg/mL (≈ 0.345 µM)
MIC ([1]; S. aureus strain H43, penicillin G resistant, methicillin susceptible): 1 µg/mL (≈ 0.69 µM)
MIC ([1]; S. aureus strain H114, penicillin G resistant, methicillin susceptible): 1 µg/mL (≈ 0.69 µM)
MIC ([1]; S. aureus strain H290, penicillin G susceptible): 1 µg/mL (≈ 0.69 µM)
MIC ([1]; S. aureus strain H541, penicillin G resistant, methicillin susceptible): 1 µg/mL (≈ 0.69 µM)
MIC (Streptococcus species; Streptococcus sp. strain 238, trypticase-soy agar plus blood): 2 µg/mL
MIC (Streptococcus species; Streptococcus sp. strain 282, trypticase-soy agar plus blood): 2 µg/mL
MIC (Streptococcus species; Streptococcus sp. strain 8043, trypticase-soy agar plus blood): 4 µg/mL
MIC (Streptococcus species; Streptococcus sp. strain 9901, trypticase-soy agar plus blood): 4 µg/mL
MIC (Streptococcus species; Streptococcus sp. strain 9913, trypticase-soy agar plus blood): 2 µg/mL
MIC (Streptococcus species; Streptococcus sp. strain 9933, trypticase-soy agar plus blood): 8 µg/mL
MIC (Streptococcus species; Streptococcus sp. strain 9960, trypticase-soy agar plus blood): 4 µg/mL
MIC (Streptococcus species; Streptococcus sp. strain 12253P, trypticase-soy agar plus blood): 2 µg/mL
MIC (Streptococcus species; Streptococcus sp. strain 55992, trypticase-soy agar plus blood): 4 µg/mL
MIC (Streptococcus species; Streptococcus sp. strain Mitis, trypticase-soy agar plus blood): 4 µg/mL
MIC (Streptococcus species; Streptococcus sp. strain Shrigley, trypticase-soy agar plus blood): 4 µg/mL
